System: HaCaT cells (EGFR expressing cell line)
Assay: HaCaT cell proliferation inhibitory activity (CellTiter-Glo, 72 hours)
Format: cell-based
Conditions: Homo sapiens
Protocol: (§1) To evaluate the cell proliferation inhibitory activity of the compound according to the present invention on HER2 and EGFR kinases, the following method was performed using HER2 overexpressing cell lines (SK-BR-3, BT-474, and N-87) and EGFR expressing cell line (HaCaT).
(§2) McCOY'S 5A supplemented with 10% FBS was used for SK-BR-3 cells, RPMI-1640 medium supplemented with 20% FBS was used for BT-474 cancer cells, and RPMI-1640 medium supplemented with 10% FBS was used for N-87 cancer cells. DMEM supplemented with 10% FBS was used for HaCaT cells.
(§3) For SK-BR-3 cells, 5000 cells were aliquoted into each well of a white clear bottom 96 well plate (Corning) 48 hours before treatment with the compounds of Examples. For BT-474 cells, 5000 cells were aliquoted into each well of a white clear bottom 96 well plate (Corning) 48 hours before treatment with the compounds of Examples. For N-87 cells, 5000 cells were aliquoted into each well of a white clear bottom 96 well plate (Corning) 24 hours before treatment with the compounds of Examples. For HaCaT cells, 3000 cells were aliquoted into each well of a white clear bottom 96 well plate (Corning) 24 hours before treatment with the compounds of Examples. For SK-BR-3 cells and BT-474 cells, the compounds of Examples were diluted in dimethyl sulfoxide (three-fold dilution, a total of 11 concentrations) and injected each in an amount of 1 μl to a final concentration of 0.2 nM to 10 μM. For N-87 cells, the compounds of Examples were diluted in dimethyl sulfoxide (five-fold dilution, a total of 11 concentrations) and injected each in an amount of 0.5 μl to a final concentration of […] to 5 μM. For HaCaT cells, the compounds of Examples were diluted in dimethyl sulfoxide (three-fold dilution, a total of 11 concentrations) and injected each in an amount of 0.5 μl to a final concentration of 0.8 nM to 45 μM. For the measurement of living cells, the cells were stored at room temperature for 10 minutes using CellTiter-Glo cell viability reagent (Promega) after a certain period of time (SK-BR-3: 120 hours, BT-474: 120 hours, N-87: 72 hours, and HaCaT: 72 hours) post treatment with the compounds of Examples, and the luminescence intensity thereof was measured using a reader (SynergyNeo, Biotek). Each test was repeated three times.
(§4) The result values were calculated as a cell growth rate (%) compared to those of the control group. A graph was created using the GraphPad Prism version 5.0 program, and GI50 values were calculated.

**Q.** With `C=CC(=O)N1CCC(Oc2cc3c(Nc4cc(-c5ccc(C)o5)ccc4OC)ncnc3cc2OC)CC1` [Example 86, 1-(4-((7-methoxy-4-((2-methoxy-5-(5-methylfuran-2-yl)phenyl)amino)quinazolin-6-yl)oxy)piperidin-1-yl)prop-2-en-1-one] as the molecule, how does the GI50 read?
**A.** The GI50 was 0.15 to 1 µM.

System: SK-BR-3 cells (HER2 overexpressing cell line)
Assay: SK-BR-3 cell proliferation inhibitory activity (CellTiter-Glo, 120 hours)
Format: cell-based
Conditions: Homo sapiens
Protocol: as §1, §2, §3, §4

**Q.** `C=CC(=O)N1CC(Oc2cc3c(Nc4cc(-c5ccccc5)ccc4OC)ncnc3cc2OC)C1` [Example 5, 1-(3-((7-methoxy-4-((4-methoxy-[1,1′-biphenyl]-3-yl)amino)quinazolin-6-yl)oxy)azetidin-1-yl)prop-2-en-1-one] was tested. Which GI50 did it give?
**A.** Its GI50 is ≤ 0.15 µM.

**Q.** `C=CC(=O)N1CC(Oc2cc3c(Nc4cc(-c5cccnc5)ccc4OC)ncnc3cc2OC)C1` [Example 6, 1-(3-((7-methoxy-4-((2-methoxy-5-(pyridin-3-yl)phenyl)amino)quinazolin-6-yl)oxy)azetidin-1-yl)prop-2-en-1-one] was tested. Which GI50 did it give?
**A.** Its GI50 is 0.15 to 1 µM.

**Q.** Which GI50 does the source give for `C=CC(=O)N1CC(Oc2cc3c(Nc4cc(-c5ccc(F)cc5)ccc4OC)ncnc3cc2OC)C1` [Example 7, 1-(3-((4-((4′-fluoro-4-methoxy-[1,1′-biphenyl]-3-yl)amino)-7-methoxy-quinazolin-6-yl)oxy)azetidin-1-yl)prop-2-en-1-one] here?
**A.** The GI50 was ≤ 0.15 µM.

**Q.** With `C=CC(=O)N1CC(Oc2cc3c(Nc4cc(-c5ccn6ncnc6c5)ccc4OC)ncnc3cc2OC)C1` [Example 30, 1-(3-((4-((5-([1,2,4]triazolo [1,5-a]pyridin-7-yl)-2-methoxyphenyl)amino)-7-methoxy-quinazolin-6-yl)oxy)azetidin-1-yl)prop-2-en-1-one] as the molecule, how does the GI50 read?
**A.** The GI50 was 0.15 to 1 µM.

**Q.** Which GI50 does the source give for `C=CC(=O)N1CC(Oc2cc3c(Nc4cc(-c5cnc6ccnn6c5)ccc4OC)ncnc3cc2OC)C1` [Example 32, 1-(3-((7-methoxy-4-((2-methoxy-5-(pyrazolo[1,5-a]pyrimidin-6-yl)phenyl)amino)quinazolin-6-yl)oxy)azetidin-1-yl)prop-2-en-1-one] here?
**A.** The GI50 was 0.15 to 1 µM.

**Q.** How did the GI50 turn out when `C=CC(=O)N1CC(Oc2cc3c(Nc4cc(-c5ccc6occc6c5)ccc4OC)ncnc3cc2OC)C1` [Example 37, 1-(3-((4-((5-(benzofuran-5-yl)-2-methoxyphenyl)amino)-7-methoxy-quinazolin-6-yl)oxy)azetidin-1-yl)prop-2-en-1-one] was run?
**A.** Its GI50 is ≤ 0.15 µM.

**Q.** `C=CC(=O)N1CC(Oc2cc3c(Nc4cc(-c5ccnn5C)ccc4OC)ncnc3cc2OC)C1` [Example 42, 1-(3-((7-methoxy-4-((2-methoxy-5-(1-methyl-1H-pyrazol-5-yl)phenyl)amino)quinazolin-6-yl)oxy)azetidin-1-yl)prop-2-en-1-one] was tested. Which GI50 did it give?
**A.** The GI50 was 0.15 to 1 µM.

**Q.** With `C=CC(=O)N1CC(Oc2cc3c(Nc4cc(-c5cccs5)ccc4OC)ncnc3cc2OC)C1` [Example 43, 1-(3-((7-methoxy-4-((2-methoxy-5-(thiophen-2-yl)phenyl)amino)quinazolin-6-yl)oxy)azetidin-1-yl)prop-2-en-1-one] as the molecule, how does the GI50 read?
**A.** Its GI50 is ≤ 0.15 µM.

**Q.** With `C=CC(=O)N1CC(Oc2cc3c(Nc4cc(-c5ccco5)ccc4OC)ncnc3cc2OC)C1` [Example 44, 1-(3-((4-((5-(furan-2-yl)-2-methoxyphenyl)amino)-7-methoxy-quinazolin-6-yl)oxy)azetidin-1-yl)prop-2-en-1-one] as the molecule, how does the GI50 read?
**A.** Its GI50 is ≤ 0.15 µM.

**Q.** For `C=CC(=O)N1CC(Oc2cc3c(Nc4cc(-c5ccoc5)ccc4OC)ncnc3cc2OC)C1` [Example 45, 1-(3-((4-((5-(furan-3-yl)-2-methoxyphenyl)amino)-7-methoxy-quinazolin-6-yl)oxy)azetidin-1-yl)prop-2-en-1-one], which GI50 is on record?
**A.** The GI50 was ≤ 0.15 µM.

**Q.** With `C=CC(=O)N1CC(Oc2cc3c(Nc4cc(-c5cncs5)ccc4OC)ncnc3cc2OC)C1` [Example 46, 1-(3-((7-methoxy-4-((2-methoxy-5-(thiazol-5-yl)phenyl)amino)quinazolin-6-yl)oxy)azetidin-1-yl)prop-2-en-1-one] as the molecule, how does the GI50 read?
**A.** Its GI50 is 0.15 to 1 µM.

**Q.** Which GI50 does the source give for `C=CC(=O)N1CC(Oc2cc3c(Nc4cc(-c5ccsc5)ccc4OC)ncnc3cc2OC)C1` [Example 47, 1-(3-((7-methoxy-4-((2-methoxy-5-(thiophen-3-yl)phenyl)amino)quinazolin-6-yl)oxy)azetidin-1-yl)prop-2-en-1-one] here?
**A.** Its GI50 is ≤ 0.15 µM.

Source: patent US20240246940A1, “HETEROARYL DERIVATIVE COMPOUND AND USE THEREOF” (VORONOI INC., priority 2021, published 2024)
